The values that follow come from patent US20180118786A1, “NOVEL lNHIBITORS OF THE ENZYME ACTIVATED FACTOR XII (FXIIA)” (ECOLE POLYTECHNIQUE FEDERALE DE LAUSANNE (EPFL), priority 2015, published 2018).

This data set in a line: Plasma stability assay. The following applies: human.

Starred links: 1 amine or outer side, 2 acyl side, 3 side chain; linkers in the order of their positions; H or OH if unused. Positions of bridges follow the written chain, without caps; N, C: chain ends. Non-standard residues stand in square brackets, D forms with d. Residues, ends and D or L forms follow the SMILES beside them. TATA = O=C(CC[*:1])N1CN(C(=O)CC[*:2])CN(C(=O)CC[*:3])C1; Phe(4-F) = N[C@@H](Cc1ccc(F)cc1)C(=O)O; β3hR = N=C(N)NCCC[C@H](N)CC(=O)O

Protocol: Peptide (2 μl of 2 mM in H2O) was added to 398 μl human plasma (final peptide concentration was 10 μM in 400 μl final volume). The mixture was incubated in the water bath at 37° C. At 8 different time points (0 h, 30 min, 1 h, 2 h, 4 h, 8 h, 12 h, 24 h and in some cases 48 h) a sample of 30 μl was removed, diluted to 200 μl with the same buffer used for protease inhibition assay (see above) and heat-inactivated for 20 min at 65° C. During this step proteases present in plasma are being inactivated, that would otherwise interfere with the subsequently performed enzymatic assay. […] Before analysis, plasma samples were centrifuged for 5 min at 16′000 g and the supernatant was collected. A twofold dilution series ranging from 0.0005-0.5 μM was prepared. IC50 values were derived from the fitted curve using the equation indicated above. Residual inhibition in % was calculated using the following formula: IC50, 0h/IC50, xh*100 wherein IC50, 0h is the functional strength of the inhibitor at time point 0 and IC50, xh the functional strength of inhibitor after one of the different plasma incubation period mentioned above.
The activity of the plasma proteases was heat-inactivated by incubation of the samples at 65° C. for 10 minutes.

The compound `CC(C)C[C@@H]1NC(=O)[C@H](CCC(N)=O)NC(=O)[C@H](Cc2c[nH]cn2)NC(=O)[C@@H]2CSCCC(=O)N3CN(CN(C3)C(=O)CCSC[C@H](NC(=O)[C@@H](CO)NC(=O)[C@H](N)CCCNC(=N)N)C(=O)N[C@@H](Cc3ccc(F)cc3)C(=O)N[C@@H](CCCNC(=N)N)C(=O)N[C@@H](CC(C)C)C(=O)N3CCC[C@H]3C(=O)N2)C(=O)CCSC[C@@H](C(N)=O)NC(=O)C[C@H](CCCNC(=N)N)NC1=O` [JS33-R] (H-[dR][dS]C[Phe(4-F)]RLPCHQL[β3hR]C-NH2; linker 3-8-13 via TATA; N-terminus and C-terminus assumed) gave a half-life at 10 μM of 127 h.

Usually half-life stands for the time in which the quantity being followed falls by half. A low value points to rapid decline.
